According to patent US20230322657A1, “CRYSTALLINE EDG-2 RECEPTOR ANTAGONIST AND METHODS OF MAKING” (Sanofi, priority 2020, published 2023):
Converted amounts (≈) assume the structure as drawn.

Experiments:
[1] = system: patients with diffuse cutaneous systemic sclerosis SSc (dcSSc); conditions: cited from earlier work
[2] = system: mouse model of skin fibrosis; conditions: cited from earlier work
[3] = Estimated hot solubility in solvents at elevated temperature (approximately solvent boiling point); type: physicochemical
Description: Compound I was dissolved in a variety of solvents at elevated temperature (approximately at solvent boiling point) to provide solutions of Compound I with a maximum concentration of 15 mg/mL. The input material in these experiments was a mixture of polymorphic forms 1, 2, and 3.
When concentrations of Compound I was greater than 2 mg/mL, the solutions were filtered and evaporated at 25° C. to isolate the solid.

[4] = Slurry stability study at room temperature (25° C.), 4 weeks, analysis by FTIR; type: physicochemical; conditions: for Final form after slurry: 25° C., 4 weeks, FTIR
Description: Slurry stability Maturation studies were initially conducted for the purpose of identifying the most […] stable form at room temperature (25° C.
In this set of experiments, both the individual forms and mixtures of forms were slurried in several solvents for 4 weeks, then filtered and analyzed to determine the resulting form. The first set of experiments included pure Form 1, Form 2, Form 3, and mixtures of these forms in equal amounts. The solvents included methanol, ethyl acetate, MEK, and methyl THF in order to investigate a range of solvent polarity. Additional experiments were conducted with a mixture of Form 1 and Form 4 in MEK and methanol.
Analysis was performed by FTIR due to ease of analysis for small quantities. It is interesting to note that the acid carbonyl is shifted to a different location for each polymorph. The results for the first set of experiments are listed below, comparing the starting form with the final form.

[5] = Dynamic vapor sorption (DVS); type: physicochemical; conditions: 25° C.
Description: Moisture sorption/desorption isotherms are recorded on a DVS-1 from SURFACE MEASUREMENT SYSTEMS. Two cycles are run at 25° C., in which the Relative Humidity (RH) is stepped from 0 to 95% and back to 0%. The data is evaluated with the software DVSWin V. 2.15.

[6] = Solubility of polymorphs at pH 7.4 in phosphate buffer at 25° C.; type: physicochemical; conditions: pH 7.4 phosphate buffer; for Solubility, concentration (equilibrium): 24 hr
Description: The solubility of the different polymorphs was determined at pH 7.4 in phosphate buffer at 25° C. Samples were analyzed as a function of time for each form to determine the equilibrium values. The residual solids from each sample were analyzed to verify that the form was unchanged during the experiment. The concentration (mg/mL) versus time data is listed below for each form: […]

[7] = Slurry conversion study at 40-70° C., Form 1/Form 2 1:1 mixture; type: physicochemical
Description: Slurry converstion studies were also conducted at 40-70° C. with Forms 1 and 2 to determine a transition temperature between the forms. A mixture of Form 1 and Form 2 at a (1:1 ratio) was slurried at 40° C., 50° C., 60° C., and 70° C. in two different solvents at each temperature and then analyzed to determine the direction of transformation. At 40° C. and 50° C., Methanol and MEK were used. At 60° C. and 70° C. MEK and 1-Pentanol were used.

COc1ccc(C(=O)NC2(C(=O)O)Cc3ccccc3C2)cc1OCCc1cccc(C)c1 [Compound I, 2-(4-methoxy-3-(3-methylphenethoxy)benzamido)-2,3-dihydro-1H-indene-2-carboxylic acid]
Outcome measures [1]: improved | Target engagement [1]: demonstrated | Collagen content [2]: reduced | Dermal thickening [2]: reversed | Myofibroblast differentiation [2]: significantly inhibited | Hot Solubility (est) ([3]; 1-Butanol): >10 mg/mL | Hot Solubility (est) ([3]; 1-Pentanol): >10 mg/mL | Hot Solubility (est) ([3]; Acetone): >10 mg/mL | Hot Solubility (est) ([3]; Ethanol): >10 mg/mL | Hot Solubility (est) ([3]; Hexane): <2 mg/mL | Hot Solubility (est) ([3]; Isobutyl Alcohol): >10 mg/mL | Hot Solubility (est) ([3]; Methanol): >10 mg/mL | Hot Solubility (est) ([3]; Water): <2 mg/mL

COc1ccc(C(=O)NC2(C(=O)O)Cc3ccccc3C2)cc1OCCc1cccc(C)c1 [Form 1, 2-(4-methoxy-3-(3-methylphenethoxy)benzamido)-2,3-dihydro-1H-indene-2-carboxylic acid]
Final form after slurry ([4]; Ethyl Acetate): Form 1 | Final form after slurry ([4]; MEK): Form 1 | Final form after slurry ([4]; Methanol): Form 1 | Final form after slurry ([4]; Methyl THF): Form 1 | Relative stability of the crystal forms ([4]; room temperature (25° C.)): most stable form | Reversible water uptake (bound) [5]: less than 1% | Reversible water uptake ([5]; between 0 and 95% RH): ~−0.1 % w/w

COc1ccc(C(=O)NC2(C(=O)O)Cc3ccccc3C2)cc1OCCc1cccc(C)c1 [Form 2, 2-(4-methoxy-3-(3-methylphenethoxy)benzamido)-2,3-dihydro-1H-indene-2-carboxylic acid]
Final form after slurry ([4]; Ethyl Acetate): Form 2 | Final form after slurry ([4]; MEK): Form 1 | Final form after slurry ([4]; Methanol): Form 2 | Final form after slurry ([4]; Methyl THF): Form 2 | solubility at 24 h ([6]; aqueous buffer, thermodynamic from solid, read-out: Solubility, concentration (equilibrium)): 57 µg/mL (≈ 128 µM) | 24 hour solubility, greater than Form 1 by [6]: more than 30%

COc1ccc(C(=O)NC2(C(=O)O)Cc3ccccc3C2)cc1OCCc1cccc(C)c1 [Form 3, 2-(4-methoxy-3-(3-methylphenethoxy)benzamido)-2,3-dihydro-1H-indene-2-carboxylic acid]
Final form after slurry ([4]; Ethyl Acetate): Form 1 | Final form after slurry ([4]; MEK): Form 1 | Final form after slurry ([4]; Methanol): Form 1 | Final form after slurry ([4]; Methyl THF): Form 1 | Equilibrium solubility at 24 hours compared with Form 1 [6]: more than double | Solubility, concentration (equilibrium) [6]: 0.097 mg/mL (≈ 218 µM)

COc1ccc(C(=O)NC2(C(=O)O)Cc3ccccc3C2)cc1OCCc1cccc(C)c1 [Form 4, 2-(4-methoxy-3-(3-methylphenethoxy)benzamido)-2,3-dihydro-1H-indene-2-carboxylic acid]
Equilibrium solubility at 24 hours compared with Form 1 [6]: more than double | Solubility, concentration (equilibrium) [6]: 0.102 mg/mL (≈ 229 µM)

COc1ccc(C(=O)NC2(C(=O)O)Cc3ccccc3C2)cc1OCCc1cccc(C)c1 [Forms 1, 2, 3]
Final form after slurry ([4]; MEK): Form 1 | Final form after slurry ([4]; Methanol): Form 1 | Final form after slurry ([4]; Methyl THF): Form 1

COc1ccc(C(=O)NC2(C(=O)O)Cc3ccccc3C2)cc1OCCc1cccc(C)c1 [mixture of Form 1 and Form 2]
Form after slurry (direction of transformation) ([7]; 1-Pentanol, 60° C.): Form 2 | Form after slurry (direction of transformation) ([7]; 1-Pentanol, 70° C.): Form 2 | Form after slurry (direction of transformation) ([7]; MEK, 40° C.): Form 1 | Form after slurry (direction of transformation) ([7]; MEK, 50° C.): Form 1 | Form after slurry (direction of transformation) ([7]; MEK, 60° C.): Form 2 | Form after slurry (direction of transformation) ([7]; MEK, 70° C.): Form 2 | Form after slurry (direction of transformation) ([7]; Methanol, 40° C.): Form 1 | Form after slurry (direction of transformation) ([7]; Methanol, 50° C.): Form 1

COc1ccc(C(=O)NC2(C(=O)O)Cc3ccccc3C2)cc1OCCc1cccc(C)c1 [mixtures of Form 4 and Form 1]
Final form after slurry ([4]; MEK): Form 1 | Final form after slurry ([4]; Methanol): Form 1
